“And” between values parts separate entries of the source, which are not always exact repeats. Equal values may be shown once.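 Method: 48-hour compound exposure of cells in 96-well plates, five concentrations, linear interpolation of endpoints. Abbreviation: GI50, concentration required for 50% inhibition of growth. At the TGI there is no net growth.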
Tests used:
Assay in all cases: NCI-60 cell line screen, 48 h
786-0 renal = tested on: 786-0 renal
A498 renal = tested on: A498 renal
A549 NSCLC = tested on: A549 NSCLC
ACHN renal = tested on: ACHN renal
BT-549 breast = tested on: BT-549 breast
CCRF-CEM leukemia = tested on: CCRF-CEM leukemia
COLO 205 colon = tested on: COLO 205 colon
DU-145 prostate = tested on: DU-145 prostate
EKVX NSCLC = tested on: EKVX NSCLC
HCC-2998 colon = tested on: HCC-2998 colon
HCT-116 colon = tested on: HCT-116 colon
HCT-15 colon = tested on: HCT-15 colon
HL-60(TB) leukemia = tested on: HL-60(TB) leukemia
HOP-62 NSCLC = tested on: HOP-62 NSCLC
HOP-92 NSCLC = tested on: HOP-92 NSCLC
HS 578T breast = tested on: HS 578T breast
HT29 colon = tested on: HT29 colon
IGROV1 ovarian = tested on: IGROV1 ovarian
K-562 leukemia = tested on: K-562 leukemia
KM12 colon = tested on: KM12 colon
LOX IMVI melanoma = tested on: LOX IMVI melanoma
M14 melanoma = tested on: M14 melanoma
MALME-3M melanoma = tested on: MALME-3M melanoma
MCF7 breast = tested on: MCF7 breast
MDA-MB-231 breast = tested on: MDA-MB-231 breast
MDA-MB-435 = tested on: MDA-MB-435
MOLT-4 leukemia = tested on: MOLT-4 leukemia
NCI-H226 lung = tested on: NCI-H226 lung
NCI-H23 lung = tested on: NCI-H23 lung
NCI-H460 lung = tested on: NCI-H460 lung
NCI-H522 lung = tested on: NCI-H522 lung
NCI/ADR-RES ovarian = tested on: NCI/ADR-RES ovarian
OVCAR-3 ovarian = tested on: OVCAR-3 ovarian
OVCAR-4 ovarian = tested on: OVCAR-4 ovarian
OVCAR-5 ovarian = tested on: OVCAR-5 ovarian
OVCAR-8 ovarian = tested on: OVCAR-8 ovarian
PC-3 prostate = tested on: PC-3 prostate
RPMI-8226 leukemia = tested on: RPMI-8226 leukemia
SF-268 CNS = tested on: SF-268 CNS
SF-295 CNS = tested on: SF-295 CNS
SF-539 CNS = tested on: SF-539 CNS
SK-MEL-2 melanoma = tested on: SK-MEL-2 melanoma
SK-MEL-28 melanoma = tested on: SK-MEL-28 melanoma
SK-MEL-5 melanoma = tested on: SK-MEL-5 melanoma
SK-OV-3 ovarian = tested on: SK-OV-3 ovarian
SN12C renal = tested on: SN12C renal
SNB-19 CNS = tested on: SNB-19 CNS
SNB-75 CNS = tested on: SNB-75 CNS
SR leukemia = tested on: SR leukemia
SW-620 colon = tested on: SW-620 colon
T-47D breast = tested on: T-47D breast
TK-10 renal = tested on: TK-10 renal
U251 CNS = tested on: U251 CNS
UACC-257 melanoma = tested on: UACC-257 melanoma
UACC-62 melanoma = tested on: UACC-62 melanoma
UO-31 renal = tested on: UO-31 renal

CCOC(=O)C(Cc1c[nH]c2ccc(N(CCCl)CCCl)cc12)(NC(C)=O)C(=O)OCC
GI50 (786-0 renal): 4.78 µM and 3.71 µM
TGI (786-0 renal): 23.3 µM and 21.8 µM
GI50 (A498 renal): 20.3 µM
TGI (A498 renal): 54.2 µM
GI50 (A549 NSCLC): 1.8 µM and 1.04 µM
TGI (A549 NSCLC): 25.1 µM and 63.9 µM
GI50 (ACHN renal): 0.917 µM and 0.342 µM
TGI (ACHN renal): 17.3 µM and 8.2 µM
GI50 (BT-549 breast): 16.3 µM and 12.2 µM
TGI (BT-549 breast): 39.3 µM and 50.2 µM
GI50 (CCRF-CEM leukemia): 1.33 µM and 1.47 µM
TGI (CCRF-CEM leukemia): 5.21 µM and 19.9 µM
GI50 (COLO 205 colon): 12.2 µM and 15.3 µM
TGI (COLO 205 colon): 30.4 µM and 44.2 µM
GI50 (DU-145 prostate): 14.6 µM and 7.62 µM
TGI (DU-145 prostate): 70 µM and 58.1 µM
GI50 (EKVX NSCLC): 52.2 µM and 38.7 µM
TGI (EKVX NSCLC): 403 µM
GI50 (HCC-2998 colon): 12.1 µM and 13.4 µM
TGI (HCC-2998 colon): 30.2 µM and 36.4 µM
GI50 (HCT-116 colon): 11.7 µM and 10.9 µM
TGI (HCT-116 colon): 31.3 µM and 37.9 µM
GI50 (HCT-15 colon): 14.6 µM and 16.1 µM
TGI (HCT-15 colon): 39.9 µM and 53.4 µM
GI50 (HL-60(TB) leukemia): 3.29 µM and 1.43 µM
TGI (HL-60(TB) leukemia): 12.1 µM and 9.89 µM
GI50 (HOP-62 NSCLC): 14.4 µM and 10.1 µM
TGI (HOP-62 NSCLC): 51.7 µM and 66.8 µM
GI50 (HOP-92 NSCLC): 14.1 µM
TGI (HOP-92 NSCLC): 250 µM
GI50 (HS 578T breast): 69.5 µM and 20.9 µM
TGI (HS 578T breast): 68.3 µM
GI50 (HT29 colon): 16.9 µM and 13.9 µM
TGI (HT29 colon): 77.4 µM
GI50 (IGROV1 ovarian): 19.4 µM
TGI (IGROV1 ovarian): 102 µM
GI50 (K-562 leukemia): 22.7 µM and 12.2 µM
TGI (K-562 leukemia): 57.5 µM and 47.2 µM
GI50 (KM12 colon): 22.1 µM and 14.9 µM
TGI (KM12 colon): 83.5 µM and 36.3 µM
GI50 (LOX IMVI melanoma): 7.09 µM and 4.88 µM
TGI (LOX IMVI melanoma): 24.6 µM and 35.3 µM
GI50 (M14 melanoma): 12.3 µM
TGI (M14 melanoma): 116 µM
GI50 (MALME-3M melanoma): 11.1 µM
TGI (MALME-3M melanoma): 28.3 µM
GI50 (MCF7 breast): 2.42 µM and 3.11 µM
TGI (MCF7 breast): 26.8 µM and 96.6 µM
GI50 (MDA-MB-231 breast): 24.6 µM and 33.3 µM
TGI (MDA-MB-231 breast): 81.2 µM and 575 µM
GI50 (MDA-MB-435): 16.9 µM
TGI (MDA-MB-435): 33.1 µM
GI50 (MOLT-4 leukemia): 2.88 µM and 0.957 µM
TGI (MOLT-4 leukemia): 13 µM and 26.2 µM
GI50 (NCI-H226 lung): 14.1 µM and 19.4 µM
TGI (NCI-H226 lung): 41.4 µM and 67.9 µM
GI50 (NCI-H23 lung): 5.99 µM and 9.89 µM
TGI (NCI-H23 lung): 31.2 µM and 64.8 µM
GI50 (NCI-H460 lung): 1.82 µM and 0.765 µM
TGI (NCI-H460 lung): 17.7 µM and 132 µM
GI50 (NCI-H522 lung): 0.17 µM
TGI (NCI-H522 lung): 1.93 µM
GI50 (NCI/ADR-RES ovarian): 14.6 µM and 11.7 µM
TGI (NCI/ADR-RES ovarian): 47.3 µM and 64.3 µM
GI50 (OVCAR-3 ovarian): 23.4 µM and 14.4 µM
TGI (OVCAR-3 ovarian): 65.7 µM and 35.1 µM
GI50 (OVCAR-4 ovarian): 53 µM and 47.8 µM
TGI (OVCAR-4 ovarian): 682 µM
GI50 (OVCAR-5 ovarian): 30.8 µM and 25.2 µM
TGI (OVCAR-5 ovarian): 67 µM and 75.7 µM
GI50 (OVCAR-8 ovarian): 14.3 µM and 19.8 µM
TGI (OVCAR-8 ovarian): 45 µM
GI50 (PC-3 prostate): 3.84 µM and 18.5 µM
TGI (PC-3 prostate): 48.1 µM and 332 µM
GI50 (RPMI-8226 leukemia): 6.41 µM
TGI (RPMI-8226 leukemia): 33.4 µM
GI50 (SF-268 CNS): 5.21 µM
TGI (SF-268 CNS): 46.5 µM
GI50 (SF-295 CNS): 5.41 µM and 4.2 µM
TGI (SF-295 CNS): 32 µM and 232 µM
GI50 (SF-539 CNS): 3.18 µM and 6.88 µM
TGI (SF-539 CNS): 12.6 µM and 30.3 µM
GI50 (SK-MEL-2 melanoma): 5.04 µM and 27.6 µM
TGI (SK-MEL-2 melanoma): 19.3 µM and 65.9 µM
GI50 (SK-MEL-28 melanoma): 31.6 µM and 23 µM
TGI (SK-MEL-28 melanoma): 238 µM
GI50 (SK-MEL-5 melanoma): 7.34 µM and 24.5 µM
TGI (SK-MEL-5 melanoma): 25.5 µM and 137 µM
GI50 (SK-OV-3 ovarian): 22.6 µM and 17.5 µM
TGI (SK-OV-3 ovarian): 99.4 µM and 131 µM
GI50 (SN12C renal): 8.82 µM and 8.93 µM
TGI (SN12C renal): 564 µM
GI50 (SNB-19 CNS): 19.6 µM
TGI (SNB-19 CNS): 312 µM
GI50 (SNB-75 CNS): 11.5 µM and 6.53 µM
TGI (SNB-75 CNS): 67.9 µM and 57 µM
GI50 (SR leukemia): 1.86 µM
TGI (SR leukemia): 7.14 µM
GI50 (SW-620 colon): 8.78 µM and 13.2 µM
TGI (SW-620 colon): 93.6 µM and 46.8 µM
GI50 (T-47D breast): 9.31 µM and 6.59 µM
TGI (T-47D breast): 51.9 µM and > 71.8 µM
GI50 (TK-10 renal): 22.2 µM and 17.6 µM
TGI (TK-10 renal): 60.5 µM and 62.7 µM
GI50 (U251 CNS): 10.6 µM and 7.88 µM
TGI (U251 CNS): 35.4 µM and 35.3 µM
GI50 (UACC-257 melanoma): 17.6 µM and 23.9 µM
TGI (UACC-257 melanoma): 52.6 µM and 94 µM
GI50 (UACC-62 melanoma): 12.1 µM
TGI (UACC-62 melanoma): 26 µM
GI50 (UO-31 renal): 20.7 µM and 10.5 µM
TGI (UO-31 renal): 53.8 µM and 46 µM
